Entries after “also recorded” stand apart in the source; their conditions may differ.
Tested on: muscular bilayer tissues of biohybrid fish (human stem cell-derived CMs)
Experiment: Antagonistic contraction and swimming performance of self-paced biohybrid fish treated with stretch-activated channel blockers
Type: cell-based
Conditions: for Spontaneous frequencies of treated muscular bilayer tissues (frequency-domain analysis of tail-beat angle) / Empirical probability of antagonistic contraction / Moving (swimming) speed: 250 μM streptomycin or 100 μM Gd3+; for Spontaneous frequencies of treated muscular bilayer tissues (frequency-domain analysis of tail-beat angle): power spectral density; for Empirical probability of antagonistic contraction / Moving (swimming) speed: self-paced biohybrid fish, at least 24 hours
Procedure: The biohybrid fish was placed in Tyrode's solution (1.8 mM CaCl2, 5 mM glucose, 5 mM Hepes, 1 mM MgCl2, 5.4 mM KCl, 135 mM NaCl, and 0.33 mM NaH2PO4 in deionized water, pH 7.4, at 37° C.; Sigma Aldrich, St. Louis, Mo.) in a 22 cm square chamber (VWR International, Radnor, Pa.) on a hotplate (VWR International, Radnor, Pa.) and temperature was maintained at 35° C. to 37° C. The recording of swimming performance of biohybrid fish was filmed with a sCMOS camera (Pco.edge, PCO AG, Germany) coupled with a zoom camera lens (Thorlabs Inc, Newton, N.J.) at 50 frames per second or a single-lens recorder (AXP55 4K Handycam, Sony, Japan) with a 26.8 mm wide-angle lens at 50 frames per second.
To check the effect of mechanical signaling on the antagonistic contraction of muscular bilayer tissues, the biohybrid fish were treated with 250 μM streptomycin or 100 μM Gd^3+ (both from Sigma-Aldrich, St. Louis, Mo.) before recording, streptomycin or Gd^3+ for at least 24 hours.
Digital videos recorded during locomotion experiments were converted to image stacks using a custom-made Matlab program (24) (R2020b, Mathworks, Natick, Mass.). The head, body, and tail positions of the biohybrid fish were tracked using an image processing software (ImageJ, NIH, Bethesda, Md.). The moving distance of the biohybrid fish was measured during each tail-beat cycle, and the swimming speed was calculated by dividing the cumulative distance travelled by the total time. Tail-beat amplitude was measured as the distance between maximum right and left excursions. Tail-beat angle (θ) was calculated as the body angle difference between chord lines of its anterior body and caudal fin at the maximum right and left excursions. Antagonistic contraction was determined by checking whether a muscle contraction induced the subsequent contraction of the opposite side muscle with any delay or not. The empirical probability of antagonistic contraction was determined by dividing the number of antagonistic contractions by the total number of contractions.

[1] = after Gd3+ treatment versus before

| Compound | Spontaneous frequencies of treated muscular bilayer tissues (frequency-domain analysis of tail-beat angle) | Reduction in Re (Reynolds number) [1] [%] | Reduction in Sw (Swimming number) [1] [%] | Empirical probability of antagonistic contraction | Moving (swimming) speed | Empirical probability of antagonistic contraction (listed as Gd3+) |
| --- | --- | --- | --- | --- | --- | --- |
| [Gd+3] [Gd^3+, gadolinium] | not harmonic | 80.8 | 40.6 | disrupted antagonistic contraction; also recorded: sensitive; also recorded: significantly decreased | reduced | reduced the chance of antagonistic muscle contraction |
| [H]/N=C(/N)N[C@H]1[C@H](O)[C@@H](O)[C@H](O[C@@H]2O[C@@H](C)[C@](O)(C=O)[C@H]2O[C@@H]2O[C@@H](CO)[C@H](O)[C@@H](O)[C@@H]2NC)[C@@H](N/C(N)=N\[H])[C@@H]1O [streptomycin] | not harmonic |  |  | disrupted antagonistic contractions; also recorded: sensitive; also recorded: reduced the chance of antagonistic muscle contraction; also recorded: significantly decreased | reduced |  |

From US20230243812A1, “[…] TISSUE […] METHODS FOR FORMATION AND USE THEREOF” (President and Fellows of Harvard College, priority 2022, published 2023)
